Values of other authors, collected in PMC12315921 (Translational Vision Science & Technology, 2025).
Like-named read-outs stand apart in the source and are kept apart here.

Experiments:
PKM2 [1] = test system: PKM2
PKM2 [2] = test system: PKM2; remark: listed apart in the source

Row | SMILES | AC50 (PKM2 [1]) | Kd (PKM2 [1]) | AC50 of PK activation (PKM2 [2]; in the absence of FBP) | AC50 of PK activation (PKM2 [2]; in the presence of FBP)
1 | O=C(COP(=O)(O)O)[C@@H](O)[C@H](O)[C@H](O)COP(=O)(O)O [FBP, fructose 1,6-biphosphate] | nanomolar range | nanomolar range |  | 
2 | Nc1cccc(S(=O)(=O)N2CCCN(S(=O)(=O)c3ccc4c(c3)OCCO4)CC2)c1 [DASA-58] |  |  | micromolar | low nanomolar
